# Laboratory results from patent US11254663B2 (BRISTOL-MYERS SQUIBB COMPANY, priority 2019, dated 2022).
# Biological target: FXR (Homo sapiens (Human), UniProt Q96RI1)
# Assay: transient human FXR/Gal4-luciferase reporter assay
# Assay type: cell-based
# Details: not given
# In short: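 Compound exposure ran overnight at 37 °C and activity was measured as luminescence with Steady-Glo reagent. The cells were a HEK293 line stably expressing firefly luciferase under five Gal4 response elements. They were transiently transfected, one night beforehand, with a plasmid encoding Gal4 DNA-binding domain fused to the human FXR ligand-binding domain.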
# Sequence of FXR (Q96RI1 262-486): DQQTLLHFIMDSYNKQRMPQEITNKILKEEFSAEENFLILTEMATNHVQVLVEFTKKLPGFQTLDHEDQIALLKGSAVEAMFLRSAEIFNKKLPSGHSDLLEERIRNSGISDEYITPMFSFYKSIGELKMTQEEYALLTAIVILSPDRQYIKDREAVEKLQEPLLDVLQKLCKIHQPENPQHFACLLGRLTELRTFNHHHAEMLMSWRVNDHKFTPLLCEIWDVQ
row,SMILES,EC50 [nM]
1,"CC(C)(C)c1nc(C23CCC(CN(C(=O)C45CC(F)(C4)C5)c4cc(-c5ccc6[nH]c(=O)oc6c5)ccn4)(CC2)CC3)no1 [Example 540, N-((4-(5-(tert-butyl)-1,2,4-oxadiazol-3-yl)bicyclo[2.2.2]octan-1-yl)methyl)-3-fluoro-N-(4-(2-oxo-2,3-dihydrobenzo[d]oxazol-6-yl)pyridin-2-yl)bicyclo[1.1.1]pentane-1-carboxamide]",71
2,"CCOc1ncc(-c2cccc(N(CC34CCC(c5noc(C(C)(F)F)n5)(CC3)CC4)C(=O)C34CC(F)(C3)C4)c2)cn1 [Example 529, N-((4-(5-(1,1-difluoroethyl)-1,2,4-oxadiazol-3-yl)bicyclo[2.2.2]octan-1-yl)methyl)-N-(3-(2-ethoxypyrimidin-5-yl)phenyl)-3-fluorobicyclo[1.1.1]pentane-1-carboxamide]",106
3,CC(C)(O)c1ccc(-c2cccc(N(CC34CCC(c5noc(C(C)(C)F)n5)(CC3)CC4)C(=O)NCC3(S(C)(=O)=O)CC3)c2)cc1 [Example 642],294
4,"Cc1nc2ccc(-c3cncc(N(CC45CCC(c6nc(C(C)(C)C)no6)(CC4)CC5)C(=O)C45CC(F)(C4)C5)c3)cc2s1 [Example 474, N-((4-(3-(tert-butyl)-1,2,4-oxadiazol-5-yl)bicyclo[2.2.2]octan-1-yl)methyl)-3-fluoro-N-(5-(2-methylbenzo[d]thiazol-6-yl)pyridin-3-yl)bicyclo[1.1.1]pentane-1-carboxamide]",541
5,"CC(C)(O)c1ccc(-c2cccc(N(CC34CCC(c5noc(C(C)(C)F)n5)(CC3)CC4)C(=O)NC3CCS(=O)(=O)CC3)c2)cc1 [Example 644, 3-(1,1-dioxidotetrahydro-2H-thiopyran-4-yl)-1-((4-(5-(2-fluoropropan-2-yl)-1,2,4-oxadiazol-3-yl)bicyclo[2.2.2]octan-1-yl)methyl)-1-(4′-(2-hydroxypropan-2-yl)-[1,1′-biphenyl]-3-yl)urea]",743
6,"CCOc1ccc(-c2cncc(N(CC34CCC(c5noc(C(C)(C)C)n5)(CC3)CC4)C(=O)C34CC(F)(C3)C4)c2)cc1 [Example 482, N-((4-(5-(tert-butyl)-1,2,4-oxadiazol-3-yl)bicyclo[2.2.2]octan-1-yl)methyl)-N-(5-(4-ethoxyphenyl)pyridin-3-yl)-3-fluorobicyclo[1.1.1]pentane-1-carboxamide]",322

# Same assay, conditions: Gal4-hFXR fusion construct, HEK293 reporter cells; response relative to 8 μM GW-4064
row,SMILES,EC50 [nM]
1,"O=C(N(CC12CCC(c3nc(C4CC4)no3)(CC1)CC2)c1cccc(-c2cc(F)c3nccn3c2)c1)C12CC(F)(C1)C2 [Example 317, N-((4-(3-cyclopropyl-1,2,4-oxadiazol-5-yl)bicyclo[2.2.2]octan-1-yl)methyl)-3-fluoro-N-(3-(8-fluoroimidazo[1,2-a]pyridin-6-yl)phenyl)bicyclo[1.1.1]pentane-1-carboxamide]",887
2,"CS(=O)(=O)Nc1ncc(-c2cccc(N(CC34CCC(c5nc(C6CC6)no5)(CC3)CC4)C(=O)C34CC(F)(C3)C4)c2)cn1 [Example 272, N-((4-(3-cyclopropyl-1,2,4-oxadiazol-5-yl)bicyclo[2.2.2]octan-1-yl)methyl)-3-fluoro-N-(3-(2-(methylsulfonamido)pyrimidin-5-yl)phenyl)bicyclo[1.1.1]pentane-1-carboxamide]",559
3,"CC(C)(C)c1noc(C23CCC(CN(C(=O)C45CC(F)(C4)C5)c4cccc(-c5ccc(OC(F)F)cn5)c4)(CC2)CC3)n1 [Example 373, N-((4-(3-(tert-butyl)-1,2,4-oxadiazol-5-yl)bicyclo[2.2.2]octan-1-yl)methyl)-N-(3-(5-(difluoromethoxy)pyridin-2-yl)phenyl)-3-fluorobicyclo[1.1.1]pentane-1-carboxamide]",88
4,"COc1cc(-c2cccc(N(CC34CCC(c5nc(C6CC6)no5)(CC3)CC4)C(=O)C34CC(F)(C3)C4)c2)cn2ncnc12 [Example 264, N-((4-(3-cyclopropyl-1,2,4-oxadiazol-5-yl)bicyclo[2.2.2]octan-1-yl)methyl)-3-fluoro-N-(3-(8-methoxy-[1,2,4]triazolo[1,5-a]pyridin-6-yl)phenyl)bicyclo[1.1.1]pentane-1-carboxamide]",1500
5,"O=C(N(CC12CCC(c3nc(C4CC4)no3)(CC1)CC2)c1cccc(-c2ccc3c(c2)OC(F)(F)O3)c1)C12CC(F)(C1)C2 [Example 284, N-((4-(3-cyclopropyl-1,2,4-oxadiazol-5-yl)bicyclo[2.2.2]octan-1-yl)methyl)-N-(3-(2,2-difluorobenzo[d][1,3]dioxol-5-yl)phenyl)-3-fluorobicyclo[1.1.1]pentane-1-carboxamide]",233
6,"CC(C)(O)c1ccc(-c2cccc(N(CC34CCC(c5noc(C(C)(F)F)n5)(CC3)CC4)C(=O)C34CC(C#N)(C3)C4)c2)cc1 [Example 585, 3-cyano-N-((4-(5-(1,1-difluoroethyl)-1,2,4-oxadiazol-3-yl)bicyclo[2.2.2]octan-1-yl)methyl)-N-(4′-(2-hydroxypropan-2-yl)-[1,1′-biphenyl]-3-yl)bicyclo[1.1.1]pentane-1-carboxamide]",18
7,"CC(C)(C#N)Oc1ccc(-c2cc(N(CC34CCC(c5noc(C(C)(C)F)n5)(CC3)CC4)C(=O)[C@H]3C[C@](O)(C(F)(F)F)C3)ccc2F)cc1 [Example 582, (cis)-N-(4′-((2-cyanopropan-2-yl)oxy)-6-fluoro-[1,1′-biphenyl]-3-yl)-N-((4-(5-(2-fluoropropan-2-yl)-1,2,4-oxadiazol-3-yl)bicyclo[2.2.2]octan-1-yl)methyl)-3-hydroxy-3-(trifluoromethyl)cyclobutane-1-carboxamide]",48
8,"CC(C)c1nc(C23CCC(CN(C(=O)C45CC(F)(C4)C5)c4cccc(-c5ccc(NS(C)(=O)=O)cc5)c4)(CC2)CC3)no1 [Example 430, 3-fluoro-N-((4-(5-isopropyl-1,2,4-oxadiazol-3-yl)bicyclo[2.2.2]octan-1-yl)methyl)-N-(4′-(methylsulfonamido)-[1,1′-biphenyl]-3-yl)bicyclo[1.1.1]pentane-1-carboxamide]",40
9,"Cn1nc(C2CC2)cc1C12CCC(CN(C(=O)C34CC(F)(C3)C4)c3cc(-c4ccc(OC(F)F)cc4)ccn3)(CC1)CC2 [Example 545, N-((4-(3-cyclopropyl-1-methyl-1H-pyrazol-5-yl)bicyclo[2.2.2]octan-1-yl)methyl)-N-(4-(4-(difluoromethoxy)phenyl)pyridin-2-yl)-3-fluorobicyclo[1.1.1]pentane-1-carboxamide]",115
10,"CC(F)(F)c1nc(C23CCC(CN(C(=O)C45CC(F)(C4)C5)c4cccc(C5CC5)c4)(CC2)CC3)no1 [Example 571, N-(3-cyclopropylphenyl)-N-((4-(5-(1,1-difluoroethyl)-1,2,4-oxadiazol-3-yl)bicyclo[2.2.2]octan-1-yl)methyl)-3-fluorobicyclo[1.1.1]pentane-1-carboxamide]",47
11,"CC(C)(OC(=O)N(CC12CCC(c3noc(C4(F)CC4)n3)(CC1)CC2)c1cc(-c2ccc(OC(F)F)cc2)ccn1)C(F)(F)F [Example 624, 1,1,1-trifluoro-2-methylpropan-2-yl(4-(4-(difluoromethoxy)phenyl)pyridin-2-yl)((4-(5-(1-fluorocyclopropyl)-1,2,4-oxadiazol-3-yl)bicyclo[2.2.2]octan-1-yl)methyl)carbamate]",50
12,"COc1ncc(C23CCC(CN(C(=O)C45CC(F)(C4)C5)c4cccc(-c5ccc6nc(C)sc6c5)c4)(CC2)CO3)cn1 [Example 558, 3-Fluoro-N-((1-(2-methoxypyrimidin-5-yl)-2-oxabicyclo[2.2.2]octan-4-yl)methyl)-N-(3-(2-methylbenzo[d]thiazol-6-yl)phenyl)bicyclo[1.1.1]pentane-1-carboxamide]",561
13,"COc1nccc(-c2cccc(N(CC34CCC(c5nc(C6CC6)no5)(CC3)CC4)C(=O)C3CC(F)(F)C3)c2)n1 [Example 243, N-((4-(3-cyclopropyl-1,2,4-oxadiazol-5-yl)bicyclo[2.2.2]octan-1-yl)methyl)-3,3-difluoro-N-(3-(2-methoxypyrimidin-4-yl)phenyl)cyclobutane-1-carboxamide]",428
14,"CC(C)c1noc(C23CCC(CN(C(=O)C45CC(F)(C4)C5)c4cccc(-c5ccc(C(F)(F)F)nc5)c4)(CC2)CC3)n1 [Example 388, 3-fluoro-N-((4-(3-isopropyl-1,2,4-oxadiazol-5-yl)bicyclo[2.2.2]octan-1-yl)methyl)-N-(3-(6-(trifluoromethyl)pyridin-3-yl)phenyl)bicyclo[1.1.1]pentane-1-carboxamide]",906
15,"COc1ccc(C23CCC(CN(C(=O)C4CC(F)(F)C4)c4cccc(-c5ccc6nc(C)sc6c5)c4)(CC2)CO3)cc1 [Example 557, 3,3-Difluoro-N-((1-(4-methoxyphenyl)-2-oxabicyclo[2.2.2]octan-4-yl)methyl)-N-(3-(2-methylbenzo[d]thiazol-6-yl)phenyl)cyclobutane-1-carboxamide]",1580
16,"CC(C)c1cc(C23CCC(CN(C(=O)OC(C)(C)C(F)(F)F)c4cc(-c5ccc(C(C)(C)O)cc5)ccn4)(CC2)CC3)n(C)n1 [Example 661, 1,1,1-trifluoro-2-methylpropan-2-yl (4-(4-(2-hydroxypropan-2-yl)phenyl)pyridin-2-yl)((4-(3-isopropyl-1-methyl-1H-pyrazol-5-yl)bicyclo[2.2.2]octan-1-yl)methyl)carbamate]",53
17,"CC(C)c1noc(C23CCC(CN(C(=O)C45CC(F)(C4)C5)c4cccc(-c5cnc(C(F)(F)F)nc5)c4)(CC2)CC3)n1 [Example 384, 3-fluoro-N-((4-(3-isopropyl-1,2,4-oxadiazol-5-yl)bicyclo[2.2.2]octan-1-yl)methyl)-N-(3-(2-(trifluoromethyl)pyrimidin-5-yl)phenyl)bicyclo[1.1.1]pentane-1-carb oxamide]",184
18,"CC(C)(F)c1nc(C23CCC(CN(c4cccc(C5=CCC(C(C)(C)O)CC5)c4)C(=O)[C@H]4C[C@](O)(C(F)(F)F)C4)(CC2)CC3)no1 (stereo partly drawn) [Example 587, (cis)-N-((4-(5-(2-fluoropropan-2-yl)-1,2,4-oxadiazol-3-yl)bicyclo[2.2.2]octan-1-yl)methyl)-3-hydroxy-N-(4′-(2-hydroxypropan-2-yl)-2′,3′,4′,5′-tetrahydro-[1,1′-biphenyl]-3-yl)-3-(trifluoromethyl)cyclobutane-1-carboxamide]",42
